# According to paper PMC8198750, “Synthesis of Novel Halogenated Heterocycles Based on o-Phenylenediamine and Their Interactions with the Catalytic Subunit of Protein Kinase CK2” (Molecules, 2021):
# Read-outs that look alike come from different tables or passages of the source.
# Tests used:
# hCK2α [1] = target: T1, hCK2α (Homo sapiens, UniProt P68400); test: nanoDSF thermal shift assay (low-volume differential scanning fluorimetry); assay type: binding
# T1 construct: made in house
# Method: Binding affinities of the newly synthesized compounds towards hCK2α were assessed with the low-volume differential scanning fluorimetry (nanoDSF). The shift of the temperature of thermal denaturation in the presence of 10-fold excess of a particular ligand relative to the apo form of hCK2α (ΔTm) can be used as a semi-qualitative measure of the binding affinity or inhibitory activity.
# hCK2α was expressed and purified according to the method described previously. Thermal stability of 1:10 protein–ligand complexes was monitored on Prometheus (Nanotemper Technologies, München, Germany) using PR-C002 Prometheus NT.48 Standard Capillaries using temperature ramp of 20 to 80 °C with 1 °C/min heating rate. Temperature-induced variation in ratio fluorescence intensity at 330 and 350 nm was globally analyzed using the procedure described before. All experiments were performed in 25 mM Tris–HCl (pH 8, 0.5 M NaCl) with 2% (v/v) DMSO. Protein was kept in constant 2.5 μM concentration.
# [2] = RP-HPLC chromatographic hydrophobicity index; assay type: physicochemical; details: C18, 2:1 methanol:20 mM aqueous ammonium formate pH 8; τ = (Tret − T0)/T0
# Method: RP-HPLC method, a fast and efficient alternative for standard logD determination in octan-1-ol/water system, was used to assess the hydrophobicity of all synthesized compounds. This method has been successfully used in our laboratory for halogenated benzotriazole derivatives, including the evaluation of the effect of hydrophobicity on their binding to the catalytic subunit of protein kinase CK2 [24, 43].
# Chromatographic hydrophobicity index (log(τ)) was determined with the reverse phase HPLC (RP-HPLC). Column: Nova-pak® C18 4 μm, 4.6 × 250 mm. Eluent: 2:1 methanol: 20 mM aqueous ammonium formate (pH = 8) (v/v). Flow: 0.7 mL/min. Detector wavelength: 280 nm. The individual retention times (Tret) were converted to a hydrophobicity scale according to the formula τ = (Tret − T0)/T0. where the retention time of unretained solvent (T0) was estimated to 300 s.
# hCK2α [3] = target: T1, hCK2α; test: Inhibitory activity against human CK2α (ADP-Glo kinase assay); assay type: biochemical; details: inhibitor 1 nM–1 mM, triplicate
# Method: The inhibitory effect of 8 selected compounds was monitored based on the luminescence measured with the SpectraMax iD3 Multi-Mode Microplate Reader (Molecular Devices, San Jose, CA, USA), using the previously described method with the aid of ADP-Glo kinase assay (Promega, Walldorf, Germany). Inhibitor concentration varied in the range of 1 nM–1 mM (see Supplementary Figure S38). Each experiment was repeated in triplicate and IC50 values were further estimated globally using the sigmoidal dose-response equation implemented in Origin 9.4 package (www.originlab.com, upgraded 20.07.27).
# [4] = tested on: epidermoid carcinoma A-431; test: MTT cell viability assay, A-431; assay type: cell-based; details: Homo sapiens, 72 h
# Description: (§1) The following human cell lines were used in this study: (i) epidermoid carcinoma A-431 (ATCC® CRL-1555), (ii) colorectal carcinoma HCT116 (ATCC® CCL-247), (iii) colorectal carcinoma HCT116p53^−/−, and (iv) normal fibroblasts BJ (ATCC® CRL-2522). The HCT116p53^−/− cell line was a kind gift from professor Bert Vogelstein (John Hopkin’s University, Baltimore, MD, USA). The remaining cell lines were purchased from ATCC (Manassas, VA, USA) or Sigma Aldrich by Merck (Darmstadt, Germany).
# (§2) Cells were cultured in Dulbecco’s modified Eagle’s or Roswell Park Memorial Institute (RPMI)-1640 medium supplemented with 10% or 15% fetal bovine serum (Gibco by Thermo Fisher Scientific, Waltham, MA, USA) under standard culture conditions (37 °C, 5% CO2) in a humidified incubator with atmospheric oxygen.
# (§3) The viability of cells was assayed by measuring the conversion of MTT (3-(4,5-dimethylthiazol-2-yl)-2,5-diphenyltetrazolium bromide) to the formazan (the rate of this reaction is proportional to the number of surviving cells). Cells were seeded in a 96-well plate at a density of 1500–2500 cells per well, 24 h before treatment. Treatment with tested compounds and cisplatin (0.25–160 µM) was performed for 72 h. MTT stock solution (Sigma-Aldrich) was added at the final concentration 0.5 mg/mL. After 2 h of incubation at 37 °C, water-insoluble formazan was dissolved in a lysis buffer containing 20% SDS, 50% DMF, 2.5% hydrochloric acid, and 2.5% acetic acid. Optical densities were measured at 570 nm using a scanning multi-well spectrophotometer ([…] Detection Platform; Beckman Coulter, Brea, CA, USA).
# normal fibroblasts BJ = test: MTT cell viability assay, BJ; assay type: cell-based, human; details: for IC50: Homo sapiens, Fibroblast, MTT, 72 h
# Description: as §1, §2, §3
# [5] = tested on: colorectal carcinoma HCT116; test: MTT cell viability assay, HCT116; assay type: cell-based; details: Homo sapiens, HCT-116, 72 h, read-out: IC50 HTC116
# Description: as §1, §2, §3
# [6] = tested on: colorectal carcinoma HCT116p53−/−; test: MTT cell viability assay, HCT116p53−/−; assay type: cell-based; details: Homo sapiens, 72 h
# Description: as §1, §2, §3
# CK2 = details: cited from earlier work
# [7] = 10-fold excess of ligand (1:10 protein–ligand), 2.5 μM protein, relative to apo hCK2α, 2% DMSO, pH 8, read-out: ΔTm
# [8] = 10-fold excess of ligand (1:10 protein–ligand), 2.5 μM protein, relative to apo hCK2α, 2% DMSO, pH 8
# [9] = read-out: IC50 against CK2 / inhibitory activity
# T1 sequence (P68400 whole entry): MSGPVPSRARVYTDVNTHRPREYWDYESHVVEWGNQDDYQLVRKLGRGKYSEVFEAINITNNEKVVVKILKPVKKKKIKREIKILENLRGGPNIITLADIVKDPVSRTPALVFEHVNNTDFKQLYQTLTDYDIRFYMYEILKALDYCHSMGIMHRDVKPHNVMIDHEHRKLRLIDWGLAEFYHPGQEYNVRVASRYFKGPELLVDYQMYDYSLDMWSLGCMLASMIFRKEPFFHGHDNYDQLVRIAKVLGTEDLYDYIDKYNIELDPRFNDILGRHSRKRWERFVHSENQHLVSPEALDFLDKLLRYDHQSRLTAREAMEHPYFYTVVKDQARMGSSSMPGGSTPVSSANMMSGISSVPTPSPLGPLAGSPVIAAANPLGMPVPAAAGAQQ
Compound,ΔTm at 25 µM (hCK2α [1]; [7]),log(τ) HPLC-derived hydrophobicity index [2],also measured
"c1ccc2nccnc2c1 [Compound 6a, quinoxaline]",-0.1 ± 0.1 °C,−0.295,
Oc1nc2cc(Br)c(Br)cc2nc1O [Compound 7d],2.7 ± 0.1 °C,−0.174,IC50 (hCK2α [3]): 13 ± 4 µM; IC50 [4]: 385 ± 82 µM; IC50 (normal fibroblasts BJ): 16 ± 2 µM; IC50 [5]: 195 ± 35 µM; IC50 [6]: 850 ± 300 µM
Nc1cc(Br)c(Br)cc1N [Compound 1d],0.2 ± 0.1 °C,−0.208,
"Clc1cc2nsnc2cc1Cl [Compound 2c, 5,6-dichloro-2,1,3-benzothiadiazole]",0.2 ± 0.1 °C,0.179,
"6,7-dichloroquinoxaline-1,3-diol [Compound 7c]",,−0.227,ΔTm (hCK2α [1]; [8]): 1.2 ± 0.1 °C
"Fc1cc2nsnc2cc1F [Compound 2b, 5,6-difluoro-2,1,3-benzothiadiazole]",-0.3 ± 0.1 °C,0.169,
"O=c1[nH]c2ccccc2[nH]1 [Compound 5a, 1H-benzo[d]imidazol-2(3H)-one]",0.8 ± 0.1 °C,−0.591,
"OCc1nc2cc(I)c(I)cc2[nH]1 [Compound 4e, 5,6-diiodo-2-hydroxymethylo-1H-benzimidazole]",3.7 ± 0.1 °C,0.088,IC50 (hCK2α [3]): 25 ± 5 µM; IC50 [4]: 39 ± 10 µM; IC50 (normal fibroblasts BJ): 15 ± 2 µM; IC50 [5]: 20 ± 2 µM; IC50 [6]: 23 ± 2 µM
"Ic1cc2nccnc2cc1I [Compound 6e, 6,7-diiodoquinoxaline]",0.4 ± 0.1 °C,0.618,
"FC(F)(F)c1nc2cc(I)c(I)cc2[nH]1 [Compound 3e, 5,6-diiodo-2-trifluoromethylo-1H-benzimidazole]",4.3 ± 0.1 °C,0.409,IC50 (hCK2α [3]): 7 ± 4 µM; IC50 [4]: 7 ± 1 µM; IC50 (normal fibroblasts BJ): 55 ± 5 µM; selectivity index (normal fibroblasts BJ; relative to BJ fibroblasts): ~ 10; IC50 [5]: 6 ± 1 µM; IC50 [6]: 6 ± 1 µM
"Brc1cc2nccnc2cc1Br [Compound 6d, 6,7-dibromoquinoxaline]",0.4 ± 0.1 °C,0.588,
"Fc1cc2nc(C(F)(F)F)[nH]c2cc1F [Compound 3b, 5,6-difluoro-2-trifluoromethylo-1H-benzimidazole]",0.8 ± 0.1 °C,−0.095,
"OCc1nc2cc(Cl)c(Cl)cc2[nH]1 [Compound 4c, 5,6-dichloro-2-hydroxymethylo-1H-benzimidazole]",0.7 ± 0.1 °C,−0.079,
"OCc1nc2ccccc2[nH]1 [Compound 4a, 2-hydroxymethylo-1H-benzimidazole]",0.4 ± 0.1 °C,−0.579,
"O=c1[nH]c2cc(I)c(I)cc2[nH]1 [Compound 5e, 5,6-diiodo-1H-benzo[d]imidazol-2(3H)-one]",2.4 ± 0.1 °C,0.082,IC50 (hCK2α [3]): 13 ± 2 µM
"FC(F)(F)c1nc2cc(Cl)c(Cl)cc2[nH]1 [Compound 3c, 5,6-dichlorlo-2-trifluoromethylo-1H-benzimidazole]",1.2 ± 0.1 °C,0.234,
"OCc1nc2cc(Br)c(Br)cc2[nH]1 [Compound 4d, 5,6-dibromo-2-hydroxymethylo-1H-benzimidazole]",1.9 ± 0.1 °C,0.010,IC50 (hCK2α [3]): > 1000 µM; IC50 [4]: 45 ± 5 µM; IC50 (normal fibroblasts BJ): 145 ± 15 µM; IC50 [5]: 21 ± 1 µM; IC50 [6]: 28 ± 3 µM

Compound,ΔTm at 25 µM (hCK2α [1]; [7]),log(τ) HPLC-derived hydrophobicity index [2],also measured
"quinoxaline-1,3-diol [Compound 7a]",,−0.699,ΔTm (hCK2α [1]; [8]): 0.1 ± 0.1 °C
"FC(F)(F)c1nc2c(Br)c(Br)c(Br)cc2[nH]1 [4,5,6-tribrominated]",,,IC50 (CK2; [9]): 1.2 µM
"FC(F)(F)c1nc2ccccc2[nH]1 [Compound 3a, 2-trifluoromethylo-1H-benzimidazole]",,−0.270,"ΔTm at 25 µM (hCK2α [1]; pH 8, read-out: ΔTm): 0.4 ± 0.1 °C"
"O=c1[nH]c2cc(Cl)c(Cl)cc2[nH]1 [Compound 5c, 5,6-dichloro-1H-benzo[d]imidazol-2(3H)-one]",0.8 ± 0.1 °C,−0.084,
FC(F)(F)c1nc2c(Br)c(Br)c(Br)c(Br)c2[nH]1 [tetrabrominated],,,IC50 (CK2; [9]): 0.6 µM
"6,7-difluoroquinoxaline-1,3-diol [Compound 7b]",,−0.548,ΔTm (hCK2α [1]; [8]): 0.2 ± 0.1 °C
Nc1cc(Cl)c(Cl)cc1N [Compound 1c],0.1 ± 0.1 °C,−0.298,
"Clc1cc2nccnc2cc1Cl [Compound 6c, 6,7-dichloroquinoxaline]",0.1 ± 0.1 °C,0.495,
"Brc1cc2nsnc2cc1Br [Compound 2d, 5,6-dibromo-2,1,3-benzothiadiazole]",0.2 ± 0.1 °C,0.461,
"c1ccc2nsnc2c1 [Compound 2a, 2,1,3-benzothiadiazole]",0 °C,0.009,
Nc1cc(F)c(F)cc1N [Compound 1b],-0.1 ± 0.1 °C,−0.591,
"Ic1cc2nsnc2cc1I [Compound 2e, 5,6-diiodo-2,1,3-benzothiadiazole]",0.2 ± 0.1 °C,0.468,
"Nc1cc(I)c(I)cc1N [Compound 1e, 4,5-diiodobenzene-1,2-diamine]",1.7 ± 0.1 °C,−0.093,
"O=c1[nH]c2c(Br)c(Br)c(Br)c(Br)c2[nH]1 [4,5,6,7-tetrabromo-1H-benzo[d]imidazol-2(3H)-one]",,,Ki (CK2): 0.2 µM; IC50 (CK2; read-out: IC50 CK2): 0.39 µM
"O=c1[nH]c2cc(Br)c(Br)cc2[nH]1 [Compound 5d, 5,6-dibromo-1H-benzo[d]imidazol-2(3H)-one]",1.8 ± 0.1 °C,0.003,IC50 (hCK2α [3]): > 1000 µM; IC50 [4]: 180 ± 40 µM; IC50 (normal fibroblasts BJ): 40 ± 5 µM; IC50 [5]: 18 ± 3 µM; IC50 [6]: 22 ± 3 µM
"Nc1ccccc1N [Compound 1a, benzo-1,2-diamine]",,−0.651,"ΔTm at 25 µM (hCK2α [1]; pH 8, read-out: ΔTm): -0.1 ± 0.1 °C"
